Species: Rattus norvegicus
Assay: Compound was evaluated in vitro, for the ability to inhibit [3H]- dopamine uptake into synaptosomes (prepared from rat striatal tissues).
Type: functional
Settings: Brain

Structure (SMILES)	IC50
COC(=O)C1C2CC[C@H](C[C@@H]1OC(=O)Nc1cccc([N+](=O)[O-])c1)N2C (stereo partly specified)	0.178 µM
COC(=O)C1C2CC[C@H](C[C@@H]1OC(=O)Nc1ccc([N+](=O)[O-])cc1)N2C (stereo partly specified)	5.7 µM
COC(=O)C1C2CC[C@H](C[C@@H]1OC(=O)Nc1ccccc1)N2C (stereo partly specified)	52.6 µM
COC(=O)C1C2CC[C@H](C[C@@H]1OC(=O)Nc1ccc(N)cc1)N2C (stereo partly specified)	> 100 µM
COC(=O)C1C2CC[C@H](C[C@@H]1OC(=O)Nc1cccc(N)c1)N2C (stereo partly specified)	23.1 µM
COC(=O)[C@H]1[C@@H](OC(=O)c2ccccc2)C[C@@H]2CC[C@H]1N2C [COCAINE]	0.213 µM

Reference: ChEMBL document CHEMBL1125918, “Synthesis of 3-carbamoylecgonine methyl ester analogues as inhibitors of cocaine binding and dopamine uptake” (J Med Chem, 1991)
